Test results taken from patent publication US20250197391A1, “METHODS OF SYNTHESIZING EGFR INHIBITORS” (Scorpion Therapeutics, Inc., priority 2022, published 2025).
Converted amounts (≈) assume the structure as drawn. “And” between values parts separate entries of the source, which are not always exact repeats. Equal entries are not always repeated.

Experiments:
[1] = Stability of process solutions / solid on drying over days (HPLC area %); format: physicochemical
[2] = Solubility data in solvents; format: physicochemical; conditions: for solubility: organic solvent or mixture

COc1c(Cl)cccc1N=C=S [Compound 1, 1-chloro-3-isothiocyanato-2-methoxybenzene]
Area % after hold ([1]; IPAC solution, 40 ± 5 C., 1 d): 96.0 A % | Area % after hold ([1]; IPAC solution, 40 ± 5 C., 2 d): 95.9 A % | Area % after hold ([1]; IPAC solution, 40 ± 5 C., 3 d): 94.3 A % | Area % after hold ([1]; IPAC solution, 50 ± 5 C., 1 d): 95.5 A % | Area % after hold ([1]; IPAC solution, 50 ± 5 C., 2 d): 94.7 A % | Area % after hold ([1]; IPAC solution, 50 ± 5 C., 3 d): 90.5 A %

COc1c(Cl)cccc1NC(=S)C1=C(O)CCN(C(=O)OC(C)(C)C)C1=O [Compound 2, tert-butyl 5-((3-chloro-2-methoxyphenyl)carbamothioyl)-4-hydroxy-6-oxo-3,6-dihydropyridine-1(2H)-carboxylate]
solubility ([2]; solvent ACN): 33 mg/mL (≈ 79.9 mM) | solubility ([2]; solvent DCM): > 200 mg/mL | solubility ([2]; solvent EtOAc): 100 mg/mL (≈ 242 mM) | solubility ([2]; solvent EtOH): < 5 mg/mL | solubility ([2]; solvent MTBE): 28 mg/mL (≈ 67.8 mM) | solubility ([2]; solvent MeOH): 5 mg/mL (≈ 12.1 mM) | solubility ([2]; solvent n-heptane): < 5 mg/mL | Area % after hold ([1]; IPAC solution pH = 5-6, 20 ± 5 C., 0 d): 90.1 A % | Area % after hold ([1]; IPAC solution pH = 5-6, 20 ± 5 C., 1 d): 89.8 A % | Area % after hold ([1]; IPAC solution pH = 5-6, 20 ± 5 C., 3 d): 90.9 A % | Area % after hold ([1]; IPAC solution, 25 ± 5 C., 0 d): 87.3% | Area % after hold ([1]; IPAC solution, 25 ± 5 C., 1 d, listed as Comp. 2): 88.7% and 86.0% | Area % after hold ([1]; IPAC solution, 25 ± 5 C., 2 d, listed as Comp. 2): 86.5% and 85.6% | Area % after hold ([1]; IPAC solution, 25 ± 5 C., 3 d, listed as Comp. 2): 85.2% and 83.5% | Area % after hold ([1]; IPAC solution, 40 ± 5 C., 0 d): 90.1 A % | Area % after hold ([1]; IPAC solution, 40 ± 5 C., 1 d, listed as Comp. 2): 88.6 A % and 87.7 A % | Area % after hold ([1]; IPAC solution, 40 ± 5 C., 3 d, listed as Comp. 2): 84.7 A % and 80.0% | Area % after hold ([1]; on drying, 45 ± 5 C., 0 d): 99.7 A % | Area % after hold ([1]; on drying, 45 ± 5 C., 3 d): 99.8%

COc1c(Cl)cccc1Nc1c(-c2ccncc2Br)[nH]c2c1C(=O)N(C(=O)OC(C)(C)C)CC2 [Compound 101, tert-butyl 2-(3-bromopyridin-4-yl)-3-((3-chloro-2-methoxyphenyl)amino)-4-oxo-1,4,6,7-tetrahydro-5H-pyrrolo[3,2-c]pyridine-5-carboxylate]
solubility ([2]; solvent ACN): 33 mg/mL (≈ 60.2 mM) | solubility ([2]; solvent DCM): > 125 mg/mL | solubility ([2]; solvent EtOAc): 6.25 mg/mL (≈ 11.4 mM) | solubility ([2]; solvent EtOH): 6.25 mg/mL (≈ 11.4 mM) | solubility ([2]; solvent MTBE): 6.25 mg/mL (≈ 11.4 mM) | solubility ([2]; solvent MeOH): 7.1 mg/mL (≈ 13 mM) | solubility ([2]; solvent n-heptane): < 5 mg/mL | solubility ([2]; solvent toluene): < 5 mg/mL

COc1c(Cl)cccc1Nc1c(-c2ccncc2Br)[nH]c2c1C(=O)NCC2 [Compound 102, 2-(3-bromopyridin-4-yl)-3-((3-chloro-2-methoxyphenyl)amino)-1,5,6,7-tetrahydro-4H-pyrrolo[3,2-c]pyridin-4-one]
Dissolution in crystallization solvents ([2]; 5 V of DCM, MeCN, MTBE, THF, MeOH, EtOAc or toluene at reflux): has not been dissolved in all these solvents at reflux except for THE | solubility ([2]; solvent 2-MeTHF): 5 mg/mL (≈ 11.2 mM) | solubility ([2]; solvent DMAC): > 200 mg/mL | solubility ([2]; solvent DMF): > 100 mg/mL | solubility ([2]; solvent DMSO): > 100 mg/mL | solubility ([2]; solvent HFIP): 94 mg/mL (≈ 210 mM) | solubility ([2]; solvent MeCN): 2 mg/mL (≈ 4.47 mM) | solubility ([2]; solvent NMP): > 100 mg/mL | solubility ([2]; solvent TFE): 79 mg/mL (≈ 176 mM) | solubility ([2]; solvent THE): 31 mg/mL (≈ 69.2 mM)
